Data on eight compounds can be found in patent US9708305B2, “Substituted 1,2,3,4-tetrahydroisoquinoline derivatives for the treatment of hormone-dependent diseases” (UNIVERSITÉ LAVAL, priority 2013, dated 2017).

The test system of series [1] is T-47D cells. As to the kind of experiment: T-47D cell proliferation (estrogenicity / cytotoxicity), MTS. Type of series: cell-based. As to conditions: for estrogenicity / cytotoxicity on T-47D cells / activity at 0.01 µM: 0.01 μM; for estrogenicity / cytotoxicity on T-47D cells: 0.1 μM and 1 μM; for activity at 0.01 µM / activity at 0.1 µM / activity at 1 µM: Homo sapiens, T47D, control cells set to 100%, mean±SD; for activity at 1 µM / Breast cancer cells T-47D (ER+) Agonist activity (%): 1 μM; for Breast cancer cells T-47D (ER+) Agonist activity (%): in % of control (100%; 0.1 nM of estradiol). The method, then: The library of phenolic compounds described above was tested on estrogen-sensitive breast cancer T-47D cells.
In Table 1, cell proliferation of control cells is set to 100%. Results are expressed as mean±SD of one experiment in triplicate.
(§1) CellTitter 96® Aqueous One Solution Cell Proliferation Assay was used as an indirect colorimetric measurement of cell proliferation according to the manufacturer's instructions. Briefly, after the treatments, 20 μL of MTS solution was added to each well (100 μL) of the plates and incubated at 37° C. for 2 h (Saos-2) or 4 h (T-47D). The absorbance at 490 nm was then measured with a Thermo max microplate reader (Molecular Devices, Sunnyvale, Calif.). The control (culture media+DMSO) is set to 100% of cell proliferation.
(§2) The cells were plated in 96-well plates at a density of 3 000 cells/well and allowed to attach for 48 h. After this pre-incubation, the inhibitors and the reference compounds diluted in fresh culture media were added to the wells and replaced every 2 days for 7 days of treatment.

The target of series [2] is T1, steroid sulfatase (STS) (Homo sapiens, UniProt P08842).
T1 construct: expressed in transfected cells; host or cells: HEK-293 cells stably transfected with STS (G418 selection), obtained from Dr. Van Luu-The; used as freeze-thaw homogenate
T1 sequence (P08842 22-583): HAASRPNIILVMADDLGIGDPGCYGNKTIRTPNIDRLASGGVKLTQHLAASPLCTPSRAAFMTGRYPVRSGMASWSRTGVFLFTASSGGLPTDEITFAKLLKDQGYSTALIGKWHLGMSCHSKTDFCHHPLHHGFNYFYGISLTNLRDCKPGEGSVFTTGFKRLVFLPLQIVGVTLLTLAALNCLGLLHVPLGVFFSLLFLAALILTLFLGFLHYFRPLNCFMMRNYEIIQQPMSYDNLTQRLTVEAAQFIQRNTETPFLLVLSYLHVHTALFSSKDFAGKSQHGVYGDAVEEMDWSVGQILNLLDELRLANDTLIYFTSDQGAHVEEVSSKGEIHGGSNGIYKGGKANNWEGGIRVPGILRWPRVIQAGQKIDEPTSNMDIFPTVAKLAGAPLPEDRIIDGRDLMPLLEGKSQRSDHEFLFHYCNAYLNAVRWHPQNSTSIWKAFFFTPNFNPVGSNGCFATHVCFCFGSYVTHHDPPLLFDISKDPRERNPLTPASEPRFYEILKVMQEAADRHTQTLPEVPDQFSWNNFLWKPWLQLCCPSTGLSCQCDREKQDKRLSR
As to the kind of experiment: Steroid sulfatase (STS) inhibition, [3H]-E1S to [3H]-E1, homogenate of transfected HEK-293 cells. Type of series: biochemical. The note with it: for inhibition of STS: homogenates of transfected HEK-293 cells. The method, then: To test STS inhibition, we used homogenated HEK-293 cells overexpressing STS and evaluated the capacity of our compounds to inhibit the conversion of [^3H]-E1S into [^3H]-E1. […] This is outlined in FIG. 5.
An enzymatic assay previously described was used for the inhibition of the transformation of estrone sulfate (E1S) to estrone (E1) by STS.^72 Briefly, the transfected HEK-293 cells were homogenized by repeated (5 times) cycles of freezing (−80° C.) and thawing on ice (4° C.). The homogenates were then incubated for 2 h at 37° C. (shaking water bath) with or without inhibitors (0.01 μM-1 μM) in presence of [^3H]-E1S (9 nM), adjusted to 1 μM with E1S, in a Tris-acetate buffer (pH 7.4) containing 5 mM EDTA and 10% glycerol. After the incubation, 1 mL of xylene was added to each tube and the solutions were then centrifuged at 3000 rpm for 20 min to separate the organic ([^3H]-E1) and aqueous ([^3H]-E1S) phases. Once 500 μL of each phase was added to 10 mL of Biodegradable Counting Scintillant, the radioactivity of samples was recorded using a Wallac 1411 Liquid Scintillation Counter. The percentage of inhibition was determined by comparison with the control (buffer+homogenate+[^3H]-E1S) which was set to 0% of inhibition. IC50 value was obtained using GraphPad Prism 5 (GraphPad Software, La Jolla, Calif.).

Series [3] has as its system T-47D cells. Put plainly: T-47D cell proliferation in presence of E2 (antiestrogenicity). Type of series: cell-based. The note with it: for inhibition at 1 µM: Homo sapiens, T47D, read-out: Breast cancer cells T-47D (ER+) Antagonist activity (%). How it is done: as §1, §2
The subject of series [4] is alkaline phosphatase (ALP) activity in Saos-2 cells. Put plainly: Alkaline phosphatase (ALP) activity in Saos-2 cells. Type of series: cell-based. How it is done: ALP is an enzyme that releases inorganic phosphate from different intracellular substrates such as pyrophosphate and pyridoxal 5′-phosphate.^63 The inorganic phosphate is used in the formation of hydroxyapatite crystals which are then inserted in the extracellular protein scaffold to form the solid part of bone tissue.
Saos-2 cells were treated similarly as reported in the cell proliferation assay. The cells were seeded at a density of 2 000 cells/well and were treated with the inhibitors and the reference compounds for 3 days. The alkaline phosphatase (ALP) activity was measured using Sensolyte® pNPP Alkaline Phosphatase Assay Kit *Colorimetric* (AnaSpec, Fremont, Calif.) following the manufacturer's protocol. Briefly, after the 3 days of treatment, the cells were washed twice with washing buffer (provided with the kit) and lysed with 0.2% Triton X-100. The cell lysates were centrifuged and the supernatants were used to determine the ALP activity. The supernatants were deposed in a 96-well plate and incubated 30 min with a p-nitrophenyl phosphate solution (provided with the kit). The absorbance at 405 nm was measured with a Thermo max microplate reader (Molecular Devices, Sunnyvale, Calif.). The control (culture media+DMSO) is set to 100% of alkaline phosphatase activity.

The subject of series [5] is osteoblast-like Saos-2 cells. As to the kind of experiment: Saos-2 cell proliferation, MTS. In kind it is cell-based. As to conditions: for Saos-2 cell proliferation, dose response: 1 nM to 1 μM; for Saos-2 cell proliferation, dose response / Saos-2 cell proliferation: 7 days; for Bone cells Saos-2 (ER+) SERM effect Proliferative activity (%): in percentage of control (100%; 0.1 nM of estradiol); for Saos-2 cell proliferation: control 100%.
Description: First, we wanted to evaluate their effect on cell proliferation. […] This is outlined in FIG. 8A. […] One of the main roles of osteoblasts in bone tissue is to construct a calcified extracellular matrix.^15 As such, bone formation is not principally due to osteoblasts proliferation but rather osteoblasts maturation into mature osteocytes. […] This is outlined in FIG. 8B.
as §1
Saos-2 cells were suspended in phenol-red free McCoy's 5A medium supplemented with 10% charcoal-stripped FBS, penicillin (100 IU/mL) and streptomycin (100 μg/mL). The cells were seeded in 96-well plates at a density of 3 000 cells/well and allowed to attach. After 24 h, the inhibitors and the reference compounds diluted in fresh culture media were added to the wells and replaced every 2 days for 7 days of treatment.

Setting [6] is: transformation of E1S into E1 in homogenate of HEK-293 cells transfected with STS, read-out: Steroid Sulfatase Inhibition IC50.
[7] abbreviates: homogenated HEK-293 cells overexpressing STS, [3H]-E1S to [3H]-E1, read-out: STS inhibition IC50.

Read-outs that look alike come from different tables or passages of the source.

As to `O=C(c1ccc(CN(Cc2ccccn2)Cc2ccco2)cc1)N1CCc2ccc(O)cc2C1` [Compound 25, (4-{[(furan-2-ylmethyl)(pyridin-2-ylmethyl)amino]methyl}phenyl)(7-hydroxy-3,4-dihydroisoquinolin-2(1H)-yl)methanone], in series [1], the “estrogenicity / cytotoxicity on T-47D cells” value (“estrogenicity / cytotoxicity” for short) is given as “neither estrogenicity nor cytotoxicity”, the activity at 0.01 µM is 104 ± 2.3%, the activity at 0.1 µM was determined as 103 ± 2.5% and the activity at 1 µM was 104 ± 6.5%. In series [2], the “inhibition of STS” value is recorded as “no significant inhibition”.
As to `Cc1ccc(CN(Cc2ccc(C(=O)N3CCc4ccc(O)cc4C3)cc2)Cc2ccccn2)s1` [Compound 28, (7-hydroxy-3,4-dihydroisoquinolin-2(1H)-yl)[4-({[(5-methylthiophen-2-yl)methyl](pyridin-2-ylmethyl)amino}methyl)phenyl]methanone], in series [1], the activity at 0.01 µM is 101 ± 3.8%, the activity at 0.1 µM is 105 ± 4.4% and the activity at 1 µM was determined as 78.9 ± 6.8%.
Take `Cc1ccc(CN(Cc2ccc(C(=O)N3CCc4ccc(O)cc4C3)cc2)Cc2ccco2)s1` [Compound 29, [4-({(furan-2-ylmethyl)[(5-methylthiophen-2-yl)methyl]amino}methyl)phenyl](7-hydroxy-3,4-dihydroisoquinolin-2(1H)-yl)methanone]: in series [3] (5 μM, E2 0.1 nM), the “blockade of the stimulation induced by E2 in T-47D cells” value was “approximately 84%”. In addition, the inhibition at 1 µM in series [3] is 46%. Besides, the “Bone cells Saos-2 (ER+) SERM effect Alkaline phosphatase activity (%)” value in series [4] (0.1 nM) was determined as 114%. Further, the “stimulation of ALP activity in presence of ICI-164,384 or MPP + PHTPP” value in series [4] (0.1 nM compound, antagonists 1 μM, 3 days) is “completely blocked the stimulation”. Besides, the “ALP activity in Saos-2 cells” value in series [4] (0.1 nM, 3 days, control 100%) was 138%. In series [5], the “Saos-2 cell proliferation, dose response” value is on record as “apparent dose-dependent response”. In series [5] (0.1 μM), the “Bone cells Saos-2 (ER+) SERM effect Proliferative activity (%)” value turned out to be 175%. Moreover, in series [5] (1 μM), the Saos-2 cell proliferation is approximately 150% and the “Bone cells Saos-2 (ER+) SERM effect Proliferative activity (%)” value turned out to be 250%. Moreover, in series [1], the “estrogenicity / cytotoxicity” value is “neither estrogenicity nor cytotoxicity”, the “Breast cancer cells T-47D (ER+) Agonist activity (%)” value is listed as 0%, the activity at 0.01 µM is 97.1 ± 2.6% and the activity at 0.1 µM was 103 ± 1.8%. Further, the activity at 1 µM in series [1] came out at 96.8 ± 2.2%. In addition, the “inhibition of STS” value in series [2] is “no significant inhibition”. In addition, in series [2] (setting [6]), the IC50 (as a rule, the concentration that inhibits the measured activity by half) was more than 1000 nM.
Regarding `O=C(c1ccc(CN(Cc2ccc(O)cc2)Cc2ccco2)cc1)N1CCc2ccc(O)cc2C1` [Compound 30, (4-{[(furan-2-ylmethyl)(4-hydroxybenzyl)amino]methyl}phenyl)(7-hydroxy-3,4-dihydroisoquinolin-2(1H)-yl)methanone], in series [1], the activity at 0.01 µM was determined as 108 ± 5.5%, the activity at 0.1 µM was 138 ± 1.2% and the activity at 1 µM came to 200 ± 4.9%.
Turning to `COc1ccc(CN(Cc2ccc(C(=O)N3CCc4ccc(O)cc4C3)cc2)Cc2ccccn2)cc1` [Compound 31, (7-hydroxy-3,4-dihydroisoquinolin-2(1H)-yl)(4-{[(4-methoxybenzyl)(pyridin-2-ylmethyl)amino]methyl}phenyl)methanone], in series [1], the “estrogenicity / cytotoxicity” value is “neither estrogenicity nor cytotoxicity”, the activity at 0.01 µM was 105.6 ± 0.6%, the activity at 0.1 µM was 105 ± 7.4% and the activity at 1 µM stood at 101 ± 7.9%. In series [2], the “inhibition of STS” value is “no significant inhibition”.
Take `NS(=O)(=O)Oc1ccc2c(c1)CN(C(=O)c1ccc(CN(Cc3ccccn3)Cc3ccco3)cc1)CC2` [Compound 32, 2-[(4-{[(furan-2-ylmethyl)(pyridin-2-ylmethyl)amino]methyl}phenyl)carbonyl]-1,2,3,4-tetrahydroisoquinolin-7-yl sulfamate]: the half-inhibitory concentration (IC50) in series [2] (setting [7]) came to 16.6 nM.
For the compound `Cc1ccc(CN(Cc2ccc(C(=O)N3CCc4ccc(OS(N)(=O)=O)cc4C3)cc2)Cc2ccco2)s1` [Compound 33, 2-{[4-({(furan-2-ylmethyl)[(5-methylthiophen-2-yl)methyl]amino}methyl)phenyl]carbonyl}-1,2,3,4-tetrahydroisoquinolin-7-yl sulfamate], in series [3], the inhibition at 1 µM was found to be 25%. In addition, the “Bone cells Saos-2 (ER+) SERM effect Alkaline phosphatase activity (%)” value in series [4] (0.1 nM) is given as 48%. Moreover, the “Saos-2 cell proliferation, dose response” value in series [5] was “apparent dose-dependent response”. Moreover, the “Bone cells Saos-2 (ER+) SERM effect Proliferative activity (%)” value in series [5] (0.1 μM) is 33%. In series [5] (1 μM), the Saos-2 cell proliferation was approximately 150% and the “Bone cells Saos-2 (ER+) SERM effect Proliferative activity (%)” value came to 211%. For the same compound, in series [1], the “Breast cancer cells T-47D (ER+) Agonist activity (%)” value is listed as 0%. In series [2] (setting [6]), the half-inhibitory concentration (IC50) was determined as 3.9 nM.
Consider `COc1ccc(CN(Cc2ccc(C(=O)N3CCc4ccc(OS(N)(=O)=O)cc4C3)cc2)Cc2ccccn2)cc1` [Compound 34, 2-[(4-{[(4-methoxybenzyl)(pyridin-2-ylmethyl)amino]methyl}phenyl)carbonyl]-1,2,3,4-tetrahydroisoquinolin-7-yl sulfamate], for which, in series [2] (setting [7]), the IC50 was determined as 3.9 nM.
